Assay results taken from PubChem BioAssay AID2060487 (Molecular Pharmacology Branch, DTP, NCI, 2025).

Tested on: 997537-175-T-J1-PDC complex spheroid viability
Experiment: Anticancer human tumor 997537-175-T-J1-PDC patient-derived colon adenocarcinoma cell line growth inhibition [GQUAD]
Conditions: for IC50: curve of first compound; for viability, T/C: stronger effect = lower value
Procedure, shortened: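 Viability of tumor cells grown as complex spheroids with endothelial and stromal cells, exposed to drug combinations. Top concentration at or near clinical Cmax (else 10 microM), diluted in half-log increments.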

[1] = second compound 0.0316 µM, first compound 0.0316 µM
[2] = second compound 0.0316 µM, first compound 0.1 µM
[3] = second compound 0.0316 µM, first compound 0.316 µM
[4] = second compound 0.0316 µM, first compound 1 µM
[5] = second compound 0.0316 µM, first compound 3.16 µM
[6] = second compound 0.0316 µM, first compound 10 µM
[7] = second compound 0.1 µM, first compound 0.0316 µM
[8] = second compound 0.1 µM, first compound 0.1 µM
[9] = second compound 0.1 µM, first compound 0.316 µM
[10] = second compound 0.1 µM, first compound 1 µM
[11] = second compound 0.1 µM, first compound 3.16 µM
[12] = second compound 0.1 µM, first compound 10 µM
[13] = second compound 0.316 µM, first compound 0.0316 µM
[14] = second compound 0.316 µM, first compound 0.1 µM
[15] = second compound 0.316 µM, first compound 0.316 µM
[16] = second compound 0.316 µM, first compound 1 µM
[17] = second compound 0.316 µM, first compound 3.16 µM
[18] = second compound 0.316 µM, first compound 10 µM
[19] = second compound 1 µM, first compound 0.0316 µM
[20] = second compound 1 µM, first compound 0.1 µM
[21] = second compound 1 µM, first compound 0.316 µM
[22] = second compound 1 µM, first compound 1 µM
[23] = second compound 1 µM, first compound 3.16 µM
[24] = second compound 1 µM, first compound 10 µM
[25] = second compound 3.16 µM, first compound 0.0316 µM
[26] = second compound 3.16 µM, first compound 0.1 µM
[27] = second compound 3.16 µM, first compound 0.316 µM
[28] = second compound 3.16 µM, first compound 1 µM
[29] = second compound 3.16 µM, first compound 3.16 µM
[30] = second compound 3.16 µM, first compound 10 µM
[31] = second compound 10 µM, first compound 0.0316 µM
[32] = second compound 10 µM, first compound 0.1 µM
[33] = second compound 10 µM, first compound 0.316 µM
[34] = second compound 10 µM, first compound 1 µM
[35] = second compound 10 µM, first compound 3.16 µM
[36] = second compound 10 µM, first compound 10 µM
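Also: spheroids exposed to the agents for 7 days.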
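For viability, T/C in this document: 100% = DMSO vehicle control viability.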

Cc1cccc(N(C)C(=O)C2C(O)CCN2c2nc(C)cc(C(F)(F)F)c2C#N)c1 (stereo unspecified) + Cc1[nH]c2ccc(F)cc2c1-c1nc2c3cccnc3c3ncccc3c2[nH]1 was tested. Which IC50 (second compound 0.0316 µM) did it give?
The IC50 was greater than 10 µM.

And the IC50 (second compound 0.1 µM)?
Its IC50 is greater than 10 µM.

And the IC50 (second compound 0.316 µM)?
The IC50 was greater than 10 µM.

And the IC50 (second compound 1 µM)?
The IC50 was greater than 10 µM.

What about the IC50 (second compound 3.16 µM) of the same compound?
Its IC50 is greater than 10 µM.

What about the IC50 (second compound 10 µM) of the same compound?
The IC50 was greater than 10 µM.

And the viability, T/C [1]?
Its viability, T/C is 104%.

What about the viability, T/C [2] of the same compound?
The viability, T/C was 82.7%.

What about the viability, T/C [3] of the same compound?
Its viability, T/C is 107%.

What about the viability, T/C [4] of the same compound?
The viability, T/C was 75.4%.

And the viability, T/C [5]?
Its viability, T/C is 85.6%.

What about the viability, T/C [6] of the same compound?
Its viability, T/C is 96%.

What about the viability, T/C [7] of the same compound?
The viability, T/C was 101%.

What about the viability, T/C [8] of the same compound?
The viability, T/C was 97.8%.

And the viability, T/C [9]?
The viability, T/C was 96%.

And the viability, T/C [10]?
The viability, T/C was 80.1%.

What about the viability, T/C [11] of the same compound?
The viability, T/C was 99%.

What about the viability, T/C [12] of the same compound?
The viability, T/C was 90.6%.

And the viability, T/C [13]?
Its viability, T/C is 101%.

And the viability, T/C [14]?
The viability, T/C was 74%.

What about the viability, T/C [15] of the same compound?
The viability, T/C was 92.8%.

And the viability, T/C [16]?
The viability, T/C was 95%.

And the viability, T/C [17]?
The viability, T/C was 100%.

What about the viability, T/C [18] of the same compound?
The viability, T/C was 106%.

And the viability, T/C [19]?
Its viability, T/C is 79.4%.

What about the viability, T/C [20] of the same compound?
Its viability, T/C is 95.3%.

And the viability, T/C [21]?
Its viability, T/C is 108%.

And the viability, T/C [22]?
Its viability, T/C is 85.4%.

And the viability, T/C [23]?
The viability, T/C was 104%.

What about the viability, T/C [24] of the same compound?
Its viability, T/C is 92.7%.

And the viability, T/C [25]?
The viability, T/C was 57.9%.

And the viability, T/C [26]?
Its viability, T/C is 89.9%.

And the viability, T/C [27]?
The viability, T/C was 76.9%.

What about the viability, T/C [28] of the same compound?
Its viability, T/C is 79.2%.

And the viability, T/C [29]?
Its viability, T/C is 69%.

And the viability, T/C [30]?
The viability, T/C was 85.6%.

What about the viability, T/C [31] of the same compound?
The viability, T/C was 80.5%.

What about the viability, T/C [32] of the same compound?
Its viability, T/C is 93.8%.

And the viability, T/C [33]?
The viability, T/C was 80.6%.

What about the viability, T/C [34] of the same compound?
Its viability, T/C is 76.8%.

What about the viability, T/C [35] of the same compound?
The viability, T/C was 105%.

What about the viability, T/C [36] of the same compound?
Its viability, T/C is 95.6%.

With CC1COCCN1c1cc(C2(S(C)(=N)=O)CC2)nc(-c2ccnc3[nH]ccc23)n1 (stereo unspecified) + Cc1cnc(CNC(=O)c2c(=O)c3ccc(N4CCCN(C)CC4)nc3n3c2sc2ccccc23)cn1 as the compound, how does the IC50 (second compound 0.0316 µM) read?
Its IC50 is 3.67 µM.

And the IC50 (second compound 0.1 µM)?
Its IC50 is 8.64 µM.

What about the IC50 (second compound 0.316 µM) of the same compound?
The IC50 was greater than 10 µM.

And the IC50 (second compound 1 µM)?
The IC50 was greater than 10 µM.

What about the IC50 (second compound 3.16 µM) of the same compound?
The IC50 was greater than 10 µM.

And the IC50 (second compound 10 µM)?
Its IC50 is greater than 10 µM.

What about the viability, T/C [1] of the same compound?
The viability, T/C was 105%.

What about the viability, T/C [2] of the same compound?
Its viability, T/C is 88.9%.

What about the viability, T/C [3] of the same compound?
The viability, T/C was 84.8%.

What about the viability, T/C [4] of the same compound?
The viability, T/C was 56.8%.

And the viability, T/C [5]?
Its viability, T/C is 54.9%.

What about the viability, T/C [6] of the same compound?
The viability, T/C was 41.7%.

What about the viability, T/C [7] of the same compound?
The viability, T/C was 91.4%.

And the viability, T/C [8]?
Its viability, T/C is 90.4%.

What about the viability, T/C [9] of the same compound?
The viability, T/C was 83.9%.

What about the viability, T/C [10] of the same compound?
The viability, T/C was 65.9%.

What about the viability, T/C [11] of the same compound?
Its viability, T/C is 72.3%.

And the viability, T/C [12]?
Its viability, T/C is 45.2%.

And the viability, T/C [13]?
The viability, T/C was 89.5%.

What about the viability, T/C [14] of the same compound?
The viability, T/C was 92.8%.

What about the viability, T/C [15] of the same compound?
Its viability, T/C is 80.6%.

What about the viability, T/C [16] of the same compound?
The viability, T/C was 60.3%.

What about the viability, T/C [17] of the same compound?
The viability, T/C was 55.4%.

What about the viability, T/C [18] of the same compound?
Its viability, T/C is 53.4%.

And the viability, T/C [19]?
The viability, T/C was 86.7%.

And the viability, T/C [20]?
Its viability, T/C is 82.5%.

And the viability, T/C [21]?
The viability, T/C was 69.6%.

And the viability, T/C [22]?
Its viability, T/C is 65.8%.

What about the viability, T/C [23] of the same compound?
The viability, T/C was 84.7%.

And the viability, T/C [24]?
Its viability, T/C is 83.7%.

And the viability, T/C [25]?
The viability, T/C was 65.4%.

And the viability, T/C [26]?
Its viability, T/C is 83.7%.

And the viability, T/C [27]?
Its viability, T/C is 104%.

And the viability, T/C [28]?
The viability, T/C was 78.2%.

What about the viability, T/C [29] of the same compound?
Its viability, T/C is 59.3%.

What about the viability, T/C [30] of the same compound?
The viability, T/C was 69%.

What about the viability, T/C [31] of the same compound?
Its viability, T/C is 74.8%.

What about the viability, T/C [32] of the same compound?
Its viability, T/C is 71.4%.

What about the viability, T/C [33] of the same compound?
Its viability, T/C is 91.8%.

What about the viability, T/C [34] of the same compound?
Its viability, T/C is 68.3%.

What about the viability, T/C [35] of the same compound?
The viability, T/C was 85.4%.

What about the viability, T/C [36] of the same compound?
Its viability, T/C is 85.8%.

Which results are given for COc1cccc2c1C(=O)c1c(O)c3c(c(O)c1C2=O)CC(O)(C(=O)CO)CC3OC1CC(N)C(O)C(C)O1 (stereo unspecified) + Cc1cnc(CNC(=O)c2c(=O)c3ccc(N4CCCN(C)CC4)nc3n3c2sc2ccccc23)cn1?
IC50 (second compound 0.0316 µM): > 10 µM; IC50 (second compound 0.1 µM): > 10 µM; IC50 (second compound 0.316 µM): 8.33 µM; IC50 (second compound 1 µM): 7.33 µM; IC50 (second compound 3.16 µM): 5.89 µM; IC50 (second compound 10 µM): 6.25 µM; viability, T/C [1]: 112%; viability, T/C [2]: 74.6%; viability, T/C [3]: 97.5%; viability, T/C [4]: 93.6%; viability, T/C [5]: 80%; viability, T/C [6]: 52.8%; viability, T/C [7]: 107%; viability, T/C [8]: 76.5%; viability, T/C [9]: 94%; viability, T/C [10]: 90.8%; viability, T/C [11]: 86.5%; viability, T/C [12]: 55.2%; viability, T/C [13]: 82.3%; viability, T/C [14]: 90.4%; viability, T/C [15]: 115%; viability, T/C [16]: 98.5%; viability, T/C [17]: 87%; viability, T/C [18]: 42.5%; viability, T/C [19]: 91.5%; viability, T/C [20]: 68.4%; viability, T/C [21]: 116%; viability, T/C [22]: 106%; viability, T/C [23]: 88%; viability, T/C [24]: 36%; viability, T/C [25]: 69.7%; viability, T/C [26]: 81.3%; viability, T/C [27]: 78%; viability, T/C [28]: 103%; viability, T/C [29]: 93.4%; viability, T/C [30]: 20.1%; viability, T/C [31]: 75.8%; viability, T/C [32]: 77.4%; viability, T/C [33]: 109%; viability, T/C [34]: 91.9%; viability, T/C [35]: 93.2%; viability, T/C [36]: 22.7%
